Experimental data reported in patent US9023844B2, “Heterocyclylpyri (mi) dinylpyrazole as fungicidals” (Bayer Intellectual Property GmbH, priority 2011, dated 2015).
Read-outs that look alike come from different tables or passages of the source.

How the values were obtained:
[1] = system: DON/Acetyl-DON production by Fusarium graminearum; test: microbe, parasite or virus in culture; assay type: cell-based
[2] = system: Pyricularia oryzae; assay type: in vivo
[3] = Determination of log P values by HPLC on a reverse phase column (C18), EEC-Directive 79/831 Annex V.A8 (Methods A, B, C); assay type: physicochemical; details: for chromatographic logP: reverse phase C18 HPLC column
Procedure, shortened: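 LogP was determined by C18 reverse-phase HPLC/UPLC with acetonitrile/water eluents containing formic acid. Method A used a 10–95% acetonitrile gradient over 4.25 min at 55 °C and 2.0 mL/min. Method B used 5–95% over 1.70 min at 55 °C and 2.0 mL/min, and Method C used 10–95% over 3.25 min at 40 °C and 0.8 mL/min, with MS detection.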

[4] = system: Fusarium graminearum; test: microbe, parasite or virus in culture; assay type: cell-based
[5] = system: Uromyces appendiculatus; test: Example B: Uromyces test (beans) / preventive; assay type: in vivo
[6] = system: Leptosphaeria nodorum; test: Example C: Leptosphaeria test (wheat) / preventive; assay type: in vivo
[7] = system: Fusarium graminearum; assay type: in vivo
[8] = system: Fusarium nivale (var. majus); test: Example K: Fusarium nivale (var. majus) test (wheat) / preventive; assay type: in vivo; details: 500 ppm of active ingredient, preventive spray, evaluated 5 days after inoculation
Experimental: After the spray coating has been dried, the plants are slightly injured by using a sandblast and afterwards they are sprayed with a conidia suspension of Fusarium nivale (var. majus).
The test is evaluated 5 days after the inoculation.

[9] = system: Plasmopara viticola; test: Example H: Plasmopara test (grapevines) / preventive; assay type: in vivo
[10] = system: Phytophthora infestans; assay type: in vivo
[11] = system: Puccinia recondita; test: Example E: Puccinia test (wheat) / preventive; assay type: in vivo
[12] = system: Pyricularia oryzae; assay type: in vivo; remark: listed apart in the source
[13] = system: Venturia inaequalis; test: Example I: Venturia test (apples) / preventive; details: 100 ppm of active ingredient, preventive spray, evaluated 10 days after inoculation
Experimental: After the spray coating has dried on, the plants are inoculated with an aqueous conidia suspension of the causal agent of apple scab (Venturia inaequalis) and then remain for 1 day in an incubation cabinet at approximately 20° C. and a relative atmospheric humidity of 100%.
The plants are then placed in a greenhouse at approximately 21° C. and a relative atmospheric humidity of approximately 90%.
The test is evaluated 10 days after the inoculation.

[14] = system: Pyrenophora teres; test: Example D: Pyrenophora test (barley) / preventive; assay type: in vivo
[15] = system: Sphaerotheca fuliginea; test: Example A: Sphaerotheca test (cucumber) / preventive; assay type: in vivo
[16] = system: Septoria tritici; test: Example J: Septoria tritici test (wheat) / preventive; assay type: in vivo
[17] = system: Sphaerotheca fuliginea; details: in vivo
[18] = system: Pyrenophora teres; details: in vivo
[19] = system: Puccinia recondita; details: in vivo
[20] = system: Botrytis cinerea; test: Example N: in vivo preventive test on Botrytis cinerea (grey mould); details: dose of 500 ppm; gherkin plants; grading 4-5 days after contamination
Experimental: The active ingredients tested are prepared by homogenization in a mixture of acetone/tween/DMSO and then diluted with water to obtain the desired active material.
Gherkin plants (“Vert petit de Paris” variety), sown in starter cups on a 50/50 peat soil-pozzolana substrate and grown at 24° C., are treated at the Z11 cotyledon stage by spraying with the active ingredient prepared as described above. Plants, used as controls, are treated with the mixture of acetone/tween/DMSO/water not containing the active material.
After 24 hours, the plants are contaminated by spraying the cotyledons with an aqueous suspension of cryopreserved Botrytis cinerea spores (50 000 spores per ml). The spores are suspended in a nutrient solution composed of 10 g/L of PDB, 50 g/L of D-Fructose, 2 g/L of NH4NO3 and 1 g/L of KH2PO4. The contaminated gherkin plants are incubated at 17° C. and at 80% relative humidity.
Grading (% of efficacy) is carried out 4-5 days after the contamination, in comparison with the control plants.

[21] = Method A: HPLC, reverse phase C18, acetonitrile (0.1% formic acid)/water (0.09% formic acid) gradient
[22] = Method B (HPLC, reverse phase C18)
[23] = 500 ppm of active ingredient, wheat, preventive spray, evaluated 7-9 days after inoculation

Row | SMILES | Inhibition of DON/AcDON in % ([1]; at 50 μM) [%] | Growth inhibition of Fusarium graminearum in % ([4]; at 50 μM) [%] | efficacy ([5]; in vivo) [%] | efficacy ([6]; in vivo) [%] | efficacy ([7]; in vivo) [%] | efficacy [8] [%] | efficacy ([9]; in vivo) [%] | efficacy ([10]; in vivo) [%] | efficacy ([11]; in vivo) [%] | efficacy ([12]; in vivo) [%] | efficacy [13] [%] | efficacy ([14]; in vivo) [%] | efficacy ([15]; in vivo) [%] | efficacy ([16]; in vivo) [%] | LogP [3, 22] | further results
1 | CCC(=O)N(C(=O)CC)c1cc(-c2c(-c3ccc(F)cc3F)nn3c2OCCC3)ccn1 [Example 95] | 97 | 77 | – | – | – | – | – | – | – | – | – | – | – | – | – | protection (% of efficacy) ([2]; in vivo): 83%; LogP [3, 21]: 2.68
2 | O=C(Nc1cc(-c2c(-c3ccc(F)cc3)nn3c2OCCC3)ccn1)C1CCOCC1 [Example 28] | 99 | 94 | 94 | 95 | 86 | 100 | 92 | 95 | 100 | 94 | 98 | 95 | 100 | 88 | 1.37 | –
3 | O=C(Nc1cc(-c2c(-c3ccc(F)cc3)nn3c2OCCC3)ccn1)C1SCCS1 [Example 69] | 96 | 83 | – | – | – | – | – | – | – | – | – | – | – | – | 2.1 | protection (% of efficacy) [17]: 100%; protection (% of efficacy) ([2]; in vivo): 100%; protection (% of efficacy) [18]: 79%; protection (% of efficacy) [19]: 81%; protection (% of efficacy) [20]: 100%
4 | CC(C)C(=O)Nc1cc(-c2c(-c3ccc(F)cc3)nn3c2OCCC3)ccn1 [Example 22] | 100 | 99 | 94 | 90 | 100 | 100 | 100 | 95 | 100 | 94 | 99 | 95 | 100 | 100 | 1.54 | –
5 | O=C(Nc1cc(-c2c(-c3ccc(F)cc3)nn3c2OCCC3)ccn1)C1CC1 [Example 4, N-{4-[2-(4-fluorophenyl)-6,7-dihydro-5H-pyrazolo[5,1-b][1,3]oxazin-3-yl]pyridin-2-yl}cyclo-propanecarboxamide] | – | – | – | – | – | 100 | – | – | – | – | 95 | – | – | – | – | efficacy ([5]; 500 ppm of active ingredient, beans, preventive spray, evaluated 6-8 days after inoculation): 90%; inhibition at 50 µM ([1]; Fusarium graminearum, at 50 μM, read-out: Inhibition of DON/AcDON in %): 99%; efficacy [6, 23]: 90%; efficacy ([7]; 500 ppm of active ingredient, barley, preventive spray, evaluated 5 days after inoculation): 100%; efficacy ([9]; 100 ppm of active ingredient, grapevines, preventive spray, evaluated 6 days after inoculation): 100%; efficacy ([10]; 100 ppm of active ingredient, tomatoes, preventive spray, evaluated 3 days after inoculation): 94%; efficacy [11, 23]: 100%; efficacy ([12]; 500 ppm of active ingredient, rice, preventive spray, evaluated 7 days after inoculation): 100%; efficacy ([14]; 500 ppm of active ingredient, barley, preventive spray, evaluated 7-9 days after inoculation): 100%; efficacy ([15]; 500 ppm of active ingredient, cucumber, preventive spray, evaluated 7 days after inoculation): 100%; efficacy ([16]; 500 ppm of active ingredient, wheat, preventive spray, evaluated 21 days after inoculation): 80%; chromatographic logP ([3]; Method B (HPLC, reverse phase C18), read-out: LogP): 1.47; chromatographic logP ([3]; pH 2.7, values in the synthesis examples, HPLC, reverse phase C18, read-out: log P (pH 2.7)): 1.39; inhibition at 50 µM ([4]; Fusarium graminearum, read-out: Growth inhibition of Fusarium graminearum in %): 69%
6 | C[Si]1(C)COc2c(-c3ccnc(N)c3)c(-c3cccs3)nn2C1 [Example 89, 4-[3,3-dimethyl-7-(2-thienyl)-3,4-dihydro-2H-pyrazolo[5,1-b][1,3,5]oxazasilin-8-yl]pyridin-2-amine] | – | – | – | – | – | – | – | – | – | – | – | – | – | – | – | protection (% of efficacy) ([2]; dose of 500 ppm, rice plants, grading 6 days after contamination): 75%; chromatographic logP ([3]; Method C (HPLC, reverse phase C18), read-out: LogP): 1.55; chromatographic logP ([3]; pH 2.3, intermediates of formula [II], HPLC, reverse phase C18, read-out: LogP (pH 2.3)): 1.55
7 | CCC(=O)Nc1cc(-c2c(-c3ccc(F)cc3)nn3c2OC[Si](C)(C)C3)ccn1 [Example 77] | – | – | 94 | 94 | 100 | 90 | 100 | 100 | 100 | 90 | 96 | 95 | 95 | 71 | – | Inhibition of DON/AcDON in % ([1]; 50 µM): 100%; LogP ([3]; Method C (HPLC, reverse phase C18)): 2.15; Growth inhibition of Fusarium graminearum in % ([4]; 50 µM): 91%
8 | CCOC(=O)Nc1cc(-c2c(-c3ccccc3)nn3c2OCCC3)ccn1 [Example 9] | 100 | 100 | 94 | 95 | 100 | 93 | 94 | 95 | 100 | 94 | 100 | 100 | 95 | 80 | 1.51 | –
9 | CCC(=O)Nc1cc(-c2c(-c3ccc(F)cc3)nn3c2OCCC3)ccn1 [Example 5] | 100 | 62 | 93 | 90 | 100 | 100 | 100 | 95 | 100 | 100 | 98 | 95 | 95 | 92 | – | LogP [3, 21]: 1.46
10 | O=C(Nc1cc(-c2c(-c3ccc(F)cc3)nn3c2OCCC3)ccn1)C1C2CCCCC21 (stereo not shown) [Example 65] | – | – | – | – | – | – | – | – | – | – | – | – | – | – | 2.13 | protection (% of efficacy) ([2]; in vivo): 80%; protection (% of efficacy) [18]: 71%
11 | CCC(C)C(=O)Nc1cc(-c2c(-c3ccccc3)nn3c2OCCC3)ccn1 (stereo not shown) [Example 10] | 100 | 95 | 94 | 80 | 90 | 100 | 94 | 95 | 100 | 94 | 99 | 80 | 100 | 86 | 1.63 | –
